Here are results for one molecule from patent US10772832B2, “Dry powder formulations for inhalation” (OTITOPIC INC., priority 2015, dated 2020).

Series [1] in a line: Light microscopy particle size. It is filed as physicochemical. From the text: Rhodine 3040 US obtained from Rhodia Inc. was used for all experiments. Particles were dispersed in 0.1% w/w docusate sodium in water and observed under a light microscope to confirm particle size. Particles ranging from 66 to 280 μm were observed confirming data from certificate of analysis, though observed “rounding” of the particulates is indicative of partial dissolution in the aqueous dispersant.
Photomicrographs of the pre- and post-micronized uncoated particles were taken by dispersing them in a solution of 0.1% w/w docusate sodium in purified water USP, and using a digital imaging light microscope (Olympus BX51 with Clemex ST-2000 controller) at 400-times or 1000-times magnification.

Series [2] is described as follows: Anti-solvent suspension evaluation (filtration, residue weighing). The format is physicochemical. Conditions: 5% w/w suspension, room temperature. The method, then:
After considering a number of factors in the end it was determined that only n-heptane and toluene fulfilled all the requirements, and therefore these were selected for further evaluation. Suspensions of acetylsalicylic acid at 5% w/w were prepared with the various anti-solvents, by charging the required amount of anti-solvent, charging the required amount of acetylsalicylic acid, and then stirring until a homogeneous suspension was obtained. The suspensions were qualitatively evaluated at room temperature and then filtered using a 0.45 μm membrane, which was then placed in an oven and dried at 60° C. until the solvent had completely evaporated. A quantitative analysis was performed on the residue that remained in the membrane by weighing the membrane before and after the test.

As for `CC(=O)Oc1ccccc1C(=O)O` [acetylsalicylic acid], the “Reduction in the starting particle size by micronization” value in series [1] is on record as “approximately 70 fold”. Also, in series [2], the Behavior towards n-heptane result is “phobic behavior” and the Solubility in toluene result is reported as “partially soluble”.
